Literature values as cited in patent US8372995B2, “Crystalline solid forms of tigecycline and methods of preparing same” (priority 2005, dated 2013).

Assays:
[1] = test system: methicillin-resistant Staphylococcus aureus
[2] = oral
[3] = test system: organisms carrying either of the two major forms of tetracycline resistance: efflux and ribosomal protection
[4] = test system: vancomycin-resistant enterococci
[5] = test system: penicillin-resistant Streptococcus pneumoniae

CN(C)c1cc(NC(=O)CNC(C)(C)C)c(O)c2c1C[C@H]1C[C@H]3[C@H](N(C)C)C(O)=C(C(N)=O)C(=O)[C@@]3(O)C(O)=C1C2=O [Tigecycline]
activity against methicillin-resistant Staphylococcus aureus [1]: active | bioavailability when given orally [2]: generally poor | activity against organisms carrying tetracycline resistance (efflux, ribosomal protection) [3]: active | activity against vancomycin-resistant enterococci [4]: active | activity against penicillin-resistant Streptococcus pneumoniae [5]: active
